Legend:
Assay type in all cases: cell-based
E. coli DH5α = assay: Antibacterial activity: MIC and growth curve against E. coli DH5α in 96-well plate; details: minimal inhibitory concentration against E. coli DH5α; 96-well plate, 5×10^5 CFU/mL, 37° C., judged after 8 h
Outline: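 Log-phase bacteria (OD600 ~0.5) resuspended in LB at 5×10^5 CFU/mL, exposed to recombinant protein at 50, 25, 12.5 μg/mL final in triplicate, 37 °C shaking at 175 rpm. OD600 read every 30 min; MIC is lowest concentration showing no growth.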

E. coli BL21 = assay: MIC against Gram-negative bacteria: E. coli BL21; details: 5×10^5 CFU/mL
Outline: (§1)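 Growth inhibition by human EGF domain proteins was scored in LB liquid culture seeded at 5×10^5 CFU/mL. Protein was applied as a two-fold dilution series in triplicate, with shaking incubation at 37° C; MIC is the lowest concentration giving no growth.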

Pseudomonas aeruginosa = assay: MIC against Gram-negative bacteria: Pseudomonas aeruginosa; details: 5×10^5 CFU/mL
Outline: as §1

Klebsiella pneumonia = assay: MIC against Gram-negative bacteria: Klebsiella pneumonia; details: 5×10^5 CFU/mL
Outline: as §1

Enterobacter cloacae = assay: MIC against Gram-negative bacteria: Enterobacter cloacae; details: 5×10^5 CFU/mL
Outline: as §1

Aeromonas hydrophila = assay: MIC against Gram-negative bacteria: Aeromonas hydrophila; details: 5×10^5 CFU/mL
Outline: as §1

Citrobacter diversus = assay: MIC against Gram-negative bacteria: Citrobacter diversus; details: 5×10^5 CFU/mL
Outline: as §1

Moraxella catarrhalis = assay: MIC against Gram-negative bacteria: Moraxella catarrhalis; details: 5×10^5 CFU/mL
Outline: as §1

Proteus mirabilis = assay: MIC against Gram-negative bacteria: Proteus mirabilis; details: 5×10^5 CFU/mL
Outline: as §1

Proteus vulgaris = assay: MIC against Gram-negative bacteria: Proteus vulgaris; details: 5×10^5 CFU/mL
Outline: as §1

Serratia marcescens = assay: MIC against Gram-negative bacteria: Serratia marcescens; details: 5×10^5 CFU/mL
Outline: as §1

[1] = E. coli BL21, 96-well plate, 37° C., 10 h
[2] = Pseudomonas aeruginosa, 96-well plate, 37° C., 10 h
[3] = Klebsiella pneumonia, 96-well plate, 37° C., 10 h
[4] = Enterobacter cloacae, 96-well plate, 37° C., 10 h
[5] = Aeromonas hydrophila, 96-well plate, 37° C., 10 h
[6] = Citrobacter diversus, 96-well plate, 37° C., 10 h
[7] = Moraxella catarrhalis, 96-well plate, 37° C., 10 h
[8] = Proteus mirabilis, 96-well plate, 37° C., 10 h
[9] = Proteus vulgaris, 96-well plate, 37° C., 10 h
[10] = Serratia marcescens, 96-well plate, 37° C., 10 h

Substance: PRT1418 (IAHYLDRVVKEGCPGLCNGNGRCTLDLNGWHCVCQLGWRGAGCD; listed as Homo sapiens)
- MIC (E. coli DH5α): 25 µg/mL
- MIC against E. coli BL21 (E. coli BL21; E. coli BL21, 10 h cultivation at 37° C.): 12.5 µg/mL
- MIC against P. aeruginosa (Pseudomonas aeruginosa; Pseudomonas aeruginosa, 10 h cultivation at 37° C.): 25 µg/mL
- MIC against K. pneumonia (Klebsiella pneumonia; Klebsiella pneumonia, 10 h cultivation at 37° C.): 50 µg/mL
- MIC against E. cloacae (Enterobacter cloacae; Enterobacter cloacae, 10 h cultivation at 37° C.): 25 µg/mL
- MIC against A. hydrophila (Aeromonas hydrophila; Aeromonas hydrophila, 10 h cultivation at 37° C.): 25 µg/mL
- MIC against C. diversus (Citrobacter diversus; Citrobacter diversus, 10 h cultivation at 37° C.): 12.5 µg/mL
- MIC against M. catarrhalis (Moraxella catarrhalis; Moraxella catarrhalis, 10 h cultivation at 37° C.): 50 µg/mL
- MIC against P. mirabilis (Proteus mirabilis; Proteus mirabilis, 10 h cultivation at 37° C.): 12.5 µg/mL
- MIC against P. vulgaris (Proteus vulgaris; Proteus vulgaris, 10 h cultivation at 37° C.): 50 µg/mL
- MIC against S. marcescens (Serratia marcescens; Serratia marcescens, 10 h cultivation at 37° C.): 25 µg/mL

Substance: PRT520 (CRCNAGGSFSEVCHSQTGQCECRANVQGQRCDKCKAGTFGLQSARGCVP; listed as Homo sapiens)
- MIC (E. coli DH5α): 25 µg/mL
- MIC against E. coli BL21 (E. coli BL21; 96-well plate, 37° C., 10 h): 12.5 µg/mL
- MIC against P. aeruginosa (Pseudomonas aeruginosa; 96-well plate, 37° C., 10 h): 25 µg/mL
- MIC against K. pneumonia (Klebsiella pneumonia; 96-well plate, 37° C., 10 h): 12.5 µg/mL
- MIC against E. cloacae (Enterobacter cloacae; 96-well plate, 37° C., 10 h): 25 µg/mL
- MIC against A. hydrophila (Aeromonas hydrophila; 96-well plate, 37° C., 10 h): 12.5 µg/mL
- MIC against C. diversus (Citrobacter diversus; 96-well plate, 37° C., 10 h): 25 µg/mL
- MIC against M. catarrhalis (Moraxella catarrhalis; 96-well plate, 37° C., 10 h): 50 µg/mL
- MIC against P. mirabilis (Proteus mirabilis; 96-well plate, 37° C., 10 h): 25 µg/mL
- MIC against P. vulgaris (Proteus vulgaris; 96-well plate, 37° C., 10 h): 12.5 µg/mL
- MIC against S. marcescens (Serratia marcescens; 96-well plate, 37° C., 10 h): 25 µg/mL

Substance: PRT670 (DVDECASRASCPTGLCLNTEGSFACSACENGYWVNEDGTACE; listed as Homo sapiens)
- MIC (E. coli DH5α): 25 µg/mL
- MIC E. coli BL21 (E. coli BL21; 96-well plate, 37° C., 10 h): 12.5 µg/mL
- MIC P. aeruginosa (Pseudomonas aeruginosa; 96-well plate, 37° C., 10 h): 25 µg/mL
- MIC K. pneumonia (Klebsiella pneumonia; 96-well plate, 37° C., 10 h): 12.5 µg/mL
- MIC E. cloacae (Enterobacter cloacae; 96-well plate, 37° C., 10 h): 12.5 µg/mL
- MIC A. hydrophila (Aeromonas hydrophila; 96-well plate, 37° C., 10 h): 12.5 µg/mL
- MIC C. diversus (Citrobacter diversus; 96-well plate, 37° C., 10 h): 25 µg/mL
- MIC M. catarrhalis (Moraxella catarrhalis; 96-well plate, 37° C., 10 h): 12.5 µg/mL
- MIC P. mirabilis (Proteus mirabilis; 96-well plate, 37° C., 10 h): 25 µg/mL
- MIC P. vulgaris (Proteus vulgaris; 96-well plate, 37° C., 10 h): 12.5 µg/mL
- MIC S. marcescens (Serratia marcescens; 96-well plate, 37° C., 10 h): 25 µg/mL

Substance: PRT135 (PGHCSSYGSICHNGGKCVEKHNGYLCDCTNSPYEGPFCK; listed as Homo sapiens)
- MIC (E. coli DH5α): 25 µg/mL
- MIC (μg/mL) E. coli BL21 (E. coli BL21; [1]): 12.5 µg/mL
- MIC (μg/mL) P. aeruginosa (Pseudomonas aeruginosa; [2]): 25 µg/mL
- MIC (μg/mL) K. pneumonia (Klebsiella pneumonia; [3]): 12.5 µg/mL
- MIC (μg/mL) E. cloacae (Enterobacter cloacae; [4]): 25 µg/mL
- MIC (μg/mL) A. hydrophila (Aeromonas hydrophila; [5]): 12.5 µg/mL
- MIC (μg/mL) C. diversus (Citrobacter diversus; [6]): 25 µg/mL
- MIC (μg/mL) M. catarrhalis (Moraxella catarrhalis; [7]): 50 µg/mL
- MIC (μg/mL) P. mirabilis (Proteus mirabilis; [8]): 25 µg/mL
- MIC (μg/mL) P. vulgaris (Proteus vulgaris; [9]): 12.5 µg/mL
- MIC (μg/mL) S. marcescens (Serratia marcescens; [10]): 50 µg/mL

Substance: PRT43 (CKCNGHASLCNTNTGKCFCTTKGVKGDECQLCEVENRYQGNPLRGTCYY; listed as Homo sapiens)
- MIC (E. coli DH5α): 12.5 µg/mL
- MIC (μg/mL) E. coli BL21 (E. coli BL21; [1]): 25 µg/mL
- MIC (μg/mL) P. aeruginosa (Pseudomonas aeruginosa; [2]): 12.5 µg/mL
- MIC (μg/mL) K. pneumonia (Klebsiella pneumonia; [3]): 25 µg/mL
- MIC (μg/mL) E. cloacae (Enterobacter cloacae; [4]): 12.5 µg/mL
- MIC (μg/mL) A. hydrophila (Aeromonas hydrophila; [5]): 25 µg/mL
- MIC (μg/mL) C. diversus (Citrobacter diversus; [6]): 12.5 µg/mL
- MIC (μg/mL) M. catarrhalis (Moraxella catarrhalis; [7]): 25 µg/mL
- MIC (μg/mL) P. mirabilis (Proteus mirabilis; [8]): 12.5 µg/mL
- MIC (μg/mL) P. vulgaris (Proteus vulgaris; [9]): 25 µg/mL
- MIC (μg/mL) S. marcescens (Serratia marcescens; [10]): 12.5 µg/mL

Substance: PRT1304 (ARDPCLGHRCHHGKCVATGTSYMCKCAEGYGGDLCD; listed as Homo sapiens)
- MIC (E. coli DH5α): 25 µg/mL
- MIC against E. coli BL21 (E. coli BL21; [1]): 12.5 µg/mL
- MIC against P. aeruginosa (Pseudomonas aeruginosa; [2]): 25 µg/mL
- MIC against K. pneumonia (Klebsiella pneumonia; [3]): 12.5 µg/mL
- MIC against E. cloacae (Enterobacter cloacae; [4]): 12.5 µg/mL
- MIC against A. hydrophila (Aeromonas hydrophila; [5]): 25 µg/mL
- MIC against C. diversus (Citrobacter diversus; [6]): 12.5 µg/mL
- MIC against M. catarrhalis (Moraxella catarrhalis; [7]): 25 µg/mL
- MIC against P. mirabilis (Proteus mirabilis; [8]): 12.5 µg/mL
- MIC against P. vulgaris (Proteus vulgaris; [9]): 25 µg/mL
- MIC against S. marcescens (Serratia marcescens; [10]): 12.5 µg/mL
